Laboratory results from ChEMBL document CHEMBL1201862, “PubChem BioAssay data set” (2004).
Each block holds one compound with its values, some of them ahead of it. The source made the active and inactive calls.

Legend:
[1] = target: Glyceraldehyde-3-phosphate dehydrogenase (Homo sapiens, UniProt P04406)
[2] = target: T1, Alkaline phosphatase, tissue-nonspecific isozyme (Homo sapiens, UniProt P05186); assay: human TNAP enzyme inhibitors, SAR follow-up, biochemical, luminescent, dose response (AID 1056)
T1 sequence (P05186 whole entry): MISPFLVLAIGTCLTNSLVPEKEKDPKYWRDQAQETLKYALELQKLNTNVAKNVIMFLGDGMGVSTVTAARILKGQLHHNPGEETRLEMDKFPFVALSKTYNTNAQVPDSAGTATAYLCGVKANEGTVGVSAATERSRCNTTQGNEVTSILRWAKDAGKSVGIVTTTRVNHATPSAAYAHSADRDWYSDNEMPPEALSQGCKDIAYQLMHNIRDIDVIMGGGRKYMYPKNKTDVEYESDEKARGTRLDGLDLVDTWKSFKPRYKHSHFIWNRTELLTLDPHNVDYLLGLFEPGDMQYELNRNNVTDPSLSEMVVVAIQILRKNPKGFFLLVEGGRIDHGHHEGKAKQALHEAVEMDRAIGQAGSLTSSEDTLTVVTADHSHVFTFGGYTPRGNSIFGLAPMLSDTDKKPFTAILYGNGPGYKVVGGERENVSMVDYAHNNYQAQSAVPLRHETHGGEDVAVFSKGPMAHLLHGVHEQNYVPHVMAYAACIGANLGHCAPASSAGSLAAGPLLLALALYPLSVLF

[3] = target: Dual specificity protein kinase CLK1 (Homo sapiens, UniProt P49759); assay: CLK1 kinase inhibitors, off-target check, dose response, selectivity assay for Dyrk1A inhibitor project, biochemical, cherry-picked samples (AID 588811)
[4] = target: Dual specificity tyrosine-phosphorylation-regulated kinase 1A (Rattus norvegicus, UniProt Q63470); type: biochemical, Homo sapiens
[5] = target: Melanin-concentrating hormone receptor 1 (Homo sapiens, UniProt Q99705); assay: Late-stage fluorescence-based counterscreen for antagonists of the G-protein coupled receptor 7 (GPR7): cell-based dose response assay to identify antagonists of the melanin-concentrating hormone receptor 1 (MCHR1) Set 6.; type: functional
[6] = target: T2, Neuropeptides B/W receptor type 1 (Homo sapiens, UniProt P48145); assay: GPR7 antagonist potency, late-stage follow-up, cell-based, fluorescence, dose response, set 6 (AID 588583); type: functional
T2 sequence (P48145 whole entry): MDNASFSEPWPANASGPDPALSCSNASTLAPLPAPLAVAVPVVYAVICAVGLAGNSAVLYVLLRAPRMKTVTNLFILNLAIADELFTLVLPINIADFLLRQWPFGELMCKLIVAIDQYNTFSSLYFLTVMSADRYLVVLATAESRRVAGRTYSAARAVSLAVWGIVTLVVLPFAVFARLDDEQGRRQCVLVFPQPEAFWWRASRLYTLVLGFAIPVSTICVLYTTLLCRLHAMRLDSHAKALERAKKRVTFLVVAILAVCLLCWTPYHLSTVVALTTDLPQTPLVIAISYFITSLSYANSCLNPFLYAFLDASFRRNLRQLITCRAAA

[7] = target: Delta-type opioid receptor (Homo sapiens, UniProt P41143); assay: Counterscreen for agonists of heterodimerization of the mu 1 (OPRM1) and delta 1 (OPRD1) opioid receptors: Luminescence-based cell-based high throughput dose response assay to identify agonists of OPRD1 homodimerization. [Related pubchem assays (depositor defined):AID504326, AID504355, AID504692, AID504904, AID504905]; type: functional
Mu-type opioid receptor = Mu-type opioid receptor (Homo sapiens, UniProt P35372); assay: Counterscreen for agonists of heterodimerization of the mu 1 (OPRM1) and delta 1 (OPRD1) opioid receptors: Luminescence-based cell-based high throughput dose response assay to identify agonists of OPRM1 homodimerization.; type: functional;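 also: U2OS cells expressing OPRM1 and beta-arrestin as split beta-galactosidase partners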
[8] = target: 5-hydroxytryptamine receptor 5A (Homo sapiens, UniProt P47898); assay: Counterscreen for agonists of OPRM1-OPRD1 heterodimerization: luminescence-based cell-based high throughput dose response assay to identify agonists of 5-hydroxytryptamine (serotonin) 5A receptor (HTR5A). [Related pubchem assays (depositor defined):AID504326, AID504355, AID504692, AID504904, AID504905]; type: functional
[9] = A549 cell cytotoxicity, dose response, cytotoxicity control, plate reader, cherry-pick, antagonist series (AID 743412); type: functional, cell-based
[10] = HepG2 cell cytotoxicity, dose response, cytotoxicity control, plate reader, cherry-pick, antagonist series (AID 743416); type: functional, cell-based
[11] = LGR2 antagonists, dose response, cell-based, HEK293, CRE-luciferase reporter, cherry pick, set 2 (AID 743343); type: functional;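 also: transfected cells were stimulated with diluted bursicon conditioned medium after compound addition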
[12] = MC4R antagonists, dose response, counter-screen for LGR2 antagonist project, cell-based, plate reader, cherry pick (AID 743444); type: functional;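 also: transfected HEK 293 cells stimulated with alpha-MSH peptide; potency of inhibitors of the alpha-MSH evoked signal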
[13] = HEK293 cell cytotoxicity, dose response, cytotoxicity control, plate reader, cherry-picked samples (AID 743446); type: functional, cell-based
[14] = target: Proto-oncogene tyrosine-protein kinase receptor Ret (Homo sapiens, UniProt P07949); type: functional;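 also: measured within a kinome-wide profiling panel, RET as the panel member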
Melanocortin receptor 4 = Melanocortin receptor 4 (Homo sapiens, UniProt P32245); assay: MC4R antagonist potency on cAMP, dose response, cell-based, TR-FRET, biased antagonists (AID 602298); type: functional;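 also: antagonist potency against agonist-stimulated cAMP production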
[15] = nonselective inhibitors of cellular cAMP signaling, dose response, counter-screen for MC4R biased antagonist project, cell-based, TR-FRET cAMP detection (AID 602305); type: functional;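 also: U2OS cells stimulated with forskolin near its EC80 as the cAMP inducer; potency is for inhibition of forskolin-stimulated cAMP signaling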
HEK293 = assay: inhibitors of LMP1-driven NF-kB reporter, dose response, cell-based, HEK293, luciferase, cherry-pick (AID 588343); type: functional; conditions: Homo sapiens
Aurora kinase A = Aurora kinase A (Homo sapiens, UniProt O14965); type: functional;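 also: value from the Navigating the Kinome kinase panel profiling, panel entry STK6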
Aurora kinase B = Aurora kinase B (Homo sapiens, UniProt Q96GD4); type: functional
Trypsin = Trypsin (Sus scrofa, UniProt P00761); assay: porcine trypsin inhibitors, dose response, selectivity assay for Rce1 protease inhibitor project, biochemical, quenched peptide fluorescence, cherry-pick (AID 488789)
CAAX prenyl protease 2 = CAAX prenyl protease 2 (Homo sapiens, UniProt Q9Y256); assay: human Rce1 protease inhibitors, dose response, biochemical, yeast membranes, quenched-peptide fluorescence, cherry-pick (AID 588849)
Escherichia coli = assay: microbe, parasite or virus in culture

Sequence of 5-hydroxytryptamine receptor 5A (P47898 whole entry): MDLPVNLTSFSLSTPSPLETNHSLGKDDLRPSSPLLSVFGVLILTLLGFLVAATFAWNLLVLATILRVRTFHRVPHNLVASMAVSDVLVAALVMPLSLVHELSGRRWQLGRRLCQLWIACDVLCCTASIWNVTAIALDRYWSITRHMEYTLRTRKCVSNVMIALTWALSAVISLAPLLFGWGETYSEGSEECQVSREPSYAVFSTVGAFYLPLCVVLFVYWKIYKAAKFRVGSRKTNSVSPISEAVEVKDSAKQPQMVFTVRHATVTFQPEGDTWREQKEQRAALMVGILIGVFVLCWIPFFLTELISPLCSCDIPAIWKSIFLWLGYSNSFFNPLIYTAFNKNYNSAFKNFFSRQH
Sequence of Aurora kinase B (Q96GD4 whole entry): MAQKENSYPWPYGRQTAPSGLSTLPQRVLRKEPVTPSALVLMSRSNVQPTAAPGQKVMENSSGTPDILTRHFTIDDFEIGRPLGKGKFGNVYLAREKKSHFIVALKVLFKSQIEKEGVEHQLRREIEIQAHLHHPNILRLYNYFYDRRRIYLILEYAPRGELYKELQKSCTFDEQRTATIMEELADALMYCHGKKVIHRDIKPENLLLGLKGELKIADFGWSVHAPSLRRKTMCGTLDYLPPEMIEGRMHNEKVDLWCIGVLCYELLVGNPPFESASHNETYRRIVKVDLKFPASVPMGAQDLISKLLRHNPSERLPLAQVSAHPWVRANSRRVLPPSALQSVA
Sequence of Aurora kinase A (O14965 whole entry): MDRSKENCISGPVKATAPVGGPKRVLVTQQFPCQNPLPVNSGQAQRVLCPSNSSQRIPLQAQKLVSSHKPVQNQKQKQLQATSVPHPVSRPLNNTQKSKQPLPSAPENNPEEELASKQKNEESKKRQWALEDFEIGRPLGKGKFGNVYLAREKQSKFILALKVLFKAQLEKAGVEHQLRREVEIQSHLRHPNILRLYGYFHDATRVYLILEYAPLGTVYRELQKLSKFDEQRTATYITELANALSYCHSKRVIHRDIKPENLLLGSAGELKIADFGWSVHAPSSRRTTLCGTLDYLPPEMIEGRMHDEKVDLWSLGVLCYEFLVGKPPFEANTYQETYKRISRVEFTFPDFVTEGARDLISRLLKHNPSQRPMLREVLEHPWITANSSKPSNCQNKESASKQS
Sequence of Proto-oncogene tyrosine-protein kinase receptor Ret (P07949 whole entry): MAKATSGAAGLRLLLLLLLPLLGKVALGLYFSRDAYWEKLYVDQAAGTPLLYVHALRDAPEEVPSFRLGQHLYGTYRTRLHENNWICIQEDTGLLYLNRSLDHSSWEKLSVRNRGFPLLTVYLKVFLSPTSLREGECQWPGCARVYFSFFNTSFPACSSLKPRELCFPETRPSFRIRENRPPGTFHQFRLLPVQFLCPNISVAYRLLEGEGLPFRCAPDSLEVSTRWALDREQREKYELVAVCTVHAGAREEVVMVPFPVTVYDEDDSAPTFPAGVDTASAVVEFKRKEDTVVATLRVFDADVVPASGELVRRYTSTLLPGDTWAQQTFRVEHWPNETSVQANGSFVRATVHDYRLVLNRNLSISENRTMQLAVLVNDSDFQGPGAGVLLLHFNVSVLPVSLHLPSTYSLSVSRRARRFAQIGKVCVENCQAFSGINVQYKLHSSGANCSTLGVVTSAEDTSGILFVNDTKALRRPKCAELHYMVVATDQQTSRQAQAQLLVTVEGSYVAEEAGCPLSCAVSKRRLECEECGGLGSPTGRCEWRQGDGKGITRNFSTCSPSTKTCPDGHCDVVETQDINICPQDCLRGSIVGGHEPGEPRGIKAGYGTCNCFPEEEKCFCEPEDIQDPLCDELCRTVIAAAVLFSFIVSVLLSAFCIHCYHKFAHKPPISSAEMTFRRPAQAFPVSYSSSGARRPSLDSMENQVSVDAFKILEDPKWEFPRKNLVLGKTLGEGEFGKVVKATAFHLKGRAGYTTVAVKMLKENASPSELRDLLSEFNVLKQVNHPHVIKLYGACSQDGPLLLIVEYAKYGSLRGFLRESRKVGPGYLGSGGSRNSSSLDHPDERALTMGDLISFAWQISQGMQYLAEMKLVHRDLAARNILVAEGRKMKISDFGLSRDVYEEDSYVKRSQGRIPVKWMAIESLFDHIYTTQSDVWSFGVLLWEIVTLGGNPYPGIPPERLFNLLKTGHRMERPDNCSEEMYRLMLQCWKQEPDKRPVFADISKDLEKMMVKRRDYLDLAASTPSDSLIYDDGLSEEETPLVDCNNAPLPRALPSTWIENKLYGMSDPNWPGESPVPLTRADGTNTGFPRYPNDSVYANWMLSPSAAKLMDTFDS
Sequence of Melanocortin receptor 4 (P32245 whole entry): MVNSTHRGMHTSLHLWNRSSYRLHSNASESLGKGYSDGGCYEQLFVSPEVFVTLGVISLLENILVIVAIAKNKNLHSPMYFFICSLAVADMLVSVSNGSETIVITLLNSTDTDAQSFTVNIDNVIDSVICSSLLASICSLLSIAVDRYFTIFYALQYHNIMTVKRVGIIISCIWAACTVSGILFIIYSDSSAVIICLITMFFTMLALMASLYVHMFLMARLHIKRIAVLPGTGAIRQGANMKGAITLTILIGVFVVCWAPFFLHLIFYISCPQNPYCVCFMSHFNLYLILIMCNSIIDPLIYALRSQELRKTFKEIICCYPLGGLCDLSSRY
Sequence of Trypsin (P00761 whole entry): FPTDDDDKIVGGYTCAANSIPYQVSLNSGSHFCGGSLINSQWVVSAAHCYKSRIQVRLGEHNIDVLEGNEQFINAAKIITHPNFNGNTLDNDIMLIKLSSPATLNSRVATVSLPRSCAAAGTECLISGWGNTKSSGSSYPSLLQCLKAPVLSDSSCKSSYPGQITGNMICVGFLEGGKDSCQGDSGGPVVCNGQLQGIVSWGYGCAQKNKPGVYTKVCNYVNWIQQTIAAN
Sequence of Dual specificity protein kinase CLK1 (P49759 whole entry): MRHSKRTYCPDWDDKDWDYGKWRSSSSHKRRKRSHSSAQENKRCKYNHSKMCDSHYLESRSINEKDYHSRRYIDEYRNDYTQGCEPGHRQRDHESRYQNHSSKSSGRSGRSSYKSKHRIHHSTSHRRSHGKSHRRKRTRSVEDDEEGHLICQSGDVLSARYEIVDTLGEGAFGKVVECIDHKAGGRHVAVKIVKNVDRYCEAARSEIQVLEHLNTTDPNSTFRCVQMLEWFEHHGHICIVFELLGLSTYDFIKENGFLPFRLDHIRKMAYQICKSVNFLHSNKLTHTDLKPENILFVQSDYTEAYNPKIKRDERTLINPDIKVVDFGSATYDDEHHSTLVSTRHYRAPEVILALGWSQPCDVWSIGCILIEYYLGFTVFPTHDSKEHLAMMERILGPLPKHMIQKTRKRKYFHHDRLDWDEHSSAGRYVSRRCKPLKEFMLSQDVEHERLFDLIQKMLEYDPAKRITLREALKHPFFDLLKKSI
Sequence of Melanin-concentrating hormone receptor 1 (Q99705 whole entry): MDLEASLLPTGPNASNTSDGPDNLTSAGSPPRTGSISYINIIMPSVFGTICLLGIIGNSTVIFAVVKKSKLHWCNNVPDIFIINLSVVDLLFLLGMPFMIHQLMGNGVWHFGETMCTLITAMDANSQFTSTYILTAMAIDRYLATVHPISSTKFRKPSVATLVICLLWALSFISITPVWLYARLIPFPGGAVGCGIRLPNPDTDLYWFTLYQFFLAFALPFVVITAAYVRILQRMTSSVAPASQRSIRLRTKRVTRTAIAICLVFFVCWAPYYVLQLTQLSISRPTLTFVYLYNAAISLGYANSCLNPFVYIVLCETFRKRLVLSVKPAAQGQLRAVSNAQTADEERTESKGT
Sequence of Glyceraldehyde-3-phosphate dehydrogenase (P04406 whole entry): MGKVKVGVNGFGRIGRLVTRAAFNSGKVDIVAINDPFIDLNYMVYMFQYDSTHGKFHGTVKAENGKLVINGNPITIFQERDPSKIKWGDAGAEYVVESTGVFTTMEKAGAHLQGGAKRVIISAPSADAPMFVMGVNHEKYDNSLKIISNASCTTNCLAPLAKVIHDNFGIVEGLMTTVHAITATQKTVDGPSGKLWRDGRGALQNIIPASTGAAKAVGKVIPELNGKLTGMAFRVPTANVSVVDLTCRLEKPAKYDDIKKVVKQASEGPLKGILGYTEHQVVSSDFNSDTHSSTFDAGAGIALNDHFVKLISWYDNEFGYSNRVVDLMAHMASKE
Sequence of Mu-type opioid receptor (P35372 whole entry): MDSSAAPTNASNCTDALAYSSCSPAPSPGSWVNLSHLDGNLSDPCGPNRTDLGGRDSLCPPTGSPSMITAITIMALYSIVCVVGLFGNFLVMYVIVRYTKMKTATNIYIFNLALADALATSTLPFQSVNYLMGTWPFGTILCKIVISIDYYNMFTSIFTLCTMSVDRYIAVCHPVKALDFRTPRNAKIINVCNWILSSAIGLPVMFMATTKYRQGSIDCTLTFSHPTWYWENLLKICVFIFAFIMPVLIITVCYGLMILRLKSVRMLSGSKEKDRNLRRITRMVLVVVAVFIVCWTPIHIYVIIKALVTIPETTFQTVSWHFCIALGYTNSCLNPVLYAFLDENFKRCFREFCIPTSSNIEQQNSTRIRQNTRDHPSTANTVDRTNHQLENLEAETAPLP
Sequence of CAAX prenyl protease 2 (Q9Y256 whole entry): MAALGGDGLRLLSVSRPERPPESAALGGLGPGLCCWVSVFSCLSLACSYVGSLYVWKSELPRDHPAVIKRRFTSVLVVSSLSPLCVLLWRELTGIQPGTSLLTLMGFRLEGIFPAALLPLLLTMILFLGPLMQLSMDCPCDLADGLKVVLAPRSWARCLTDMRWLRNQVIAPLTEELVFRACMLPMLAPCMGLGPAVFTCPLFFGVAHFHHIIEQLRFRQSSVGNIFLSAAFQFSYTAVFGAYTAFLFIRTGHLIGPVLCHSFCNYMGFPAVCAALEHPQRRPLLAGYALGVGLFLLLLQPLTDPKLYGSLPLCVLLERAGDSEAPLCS

IC50 [1]: > 10 µM (inconclusive)
IC50 [2]: 3.71 µM (active)
AC50 [3]: 16.9 µM (active)
AC50 [4]: 7.28 µM (active)
SMILES: COc1ccc2c(c1)CCc1c-2n[nH]c1C(=O)O

IC50 [5]: 6.59 µM (active)
IC50 [6]: 6.59 µM (active)
SMILES: Cc1cnn(Cc2cccc3ccccc23)c(=O)c1C(C#N)c1ccccc1 (stereo not drawn)

SMILES: CC(C)n1ncc2c(C(=O)Nc3cccc(C#N)c3)cc(C3CC3)nc21
EC50 [7]: > 92.5 µM (inactive)
EC50 (Mu-type opioid receptor): 18 µM (inactive)
EC50 [8]: > 92.5 µM (inactive)
AC50 [9]: 39.1 µM (active)
AC50 [10]: 21.8 µM (active)
AC50 [11]: 1.46 µM (active)
AC50 [12]: 0.789 µM (active)
AC50 [13]: 24.3 µM (active)

Ki [14]: 100 µM (active)
SMILES: CC(SCC1CCC2CC1C2(C)C)C(N)=O (stereo not drawn)

SMILES: CC(C)CN(C(=O)COC(=O)c1cnc(Cl)c(Cl)c1)c1c(N)n(Cc2ccccc2)c(=O)[nH]c1=O
IC50 (Melanocortin receptor 4): 11.1 µM (inactive)
IC50 [15]: > 64.6 µM (inactive)

SMILES: COc1ccc2cc(-c3cc(C(=O)OCC(=O)Nc4c(C)n(C)n(-c5ccccc5)c4=O)c4ccccc4n3)ccc2c1
AC50 (HEK293): 1.07 µM (active)

Ki (Aurora kinase A): 0.0794 µM (active)
Ki (Aurora kinase B): 0.251 µM (active)
SMILES: Nc1ccc(S(=O)(=O)O)c2cccc(O)c12

AC50 (Trypsin): 10.9 µM (active)
AC50 (CAAX prenyl protease 2): 15.3 µM (active)
SMILES: Cc1cc(C)c2nc(-c3ccco3)cc(C(=O)O)c2c1

SMILES: COc1ccccc1NS(=O)(=O)c1ccc2nc(S)oc2c1
AC50 (Escherichia coli): > 380 µM (inactive)
